In the assay the target is T1, 11β-hydroxysteroid dehydrogenase (HSD) 1 (Homo sapiens, UniProt P28845).
T1 construct: detecting cortisol generated from cortisterone by human liver microsomes; from tissue; host or cells: human liver microsomes
The assay can be described thus: In vitro inhibition of 11β-HSD1, HTRF detection of cortisol generated from cortisone by human liver microsomes. It counts as biochemical. The note with it: compound concentration 1 μM, 100% indicates no inhibition, zero or below zero indicates complete inhibition. The procedure:
Briefly, compounds are incubated for 1 hour at 37° C. in Tris buffer (20 mM tris, 5 mM EDTA, pH 6.0) containing NADPH (200 μM) and cortisone (80 nM). Cortisol generated in the reaction is then detected with a competitive immunoassay, involving two HTRF conjugates: cortisol linked to XL665 and anti-cortisol antibody labeled with Europium cryptate. The incubation period for detection reaction is typically 2 hours. The amount of cortisol is determined by reading the time-resolved fluorescence of the wells (Ex 320/75 nm; Em 615/8.5 nm and 665/7.5 nm). The ratio of the two emission signals is then calculated (Em665*10000/Em615). […] Each assay also contains a calibration curve with cortisol to transform the fluorescent data into cortisol concentrations. Percent inhibition (% CTL) of each compound is determined relative to the carbenoxolone signal and IC50 curves are generated.
The % CTL values of some example compounds at a concentration of 1 μM are provided in the following Table 2 wherein 100% indicates no inhibition and a value of zero or below zero indicates complete inhibition. The measurement of % CTL is described hereinbefore.
Background: In TR-FRET formats the signal depends on donor and acceptor labels being close together.

T1 sequence (P28845 whole entry): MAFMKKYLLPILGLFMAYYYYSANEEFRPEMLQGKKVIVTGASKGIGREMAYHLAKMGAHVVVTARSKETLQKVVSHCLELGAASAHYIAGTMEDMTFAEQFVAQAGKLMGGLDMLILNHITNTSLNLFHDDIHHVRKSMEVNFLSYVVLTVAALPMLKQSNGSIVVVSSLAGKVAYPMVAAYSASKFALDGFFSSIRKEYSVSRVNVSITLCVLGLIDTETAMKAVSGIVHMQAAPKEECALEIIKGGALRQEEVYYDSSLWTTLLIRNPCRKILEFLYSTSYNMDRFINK

Take `COC(=O)C12CC3CC(C1)CC(C14CC5CC(CC(C(=O)O)(C5)C1)C4)(C3)C2` [Example 1]: the “11β-HSD 1 inhibitory activity (% CTL at 1 μM)” value is recorded as −7 % CTL.
To `CNC(=O)C12CC3CC(C1)CC(C14CC5CC(CC(C(=O)O)(C5)C1)C4)(C3)C2` [Example 2] belongs 29 % CTL.
To `CC(C)(O)C12CC3CC(C1)CC(C14CC5CC(CC(C(=O)O)(C5)C1)C4)(C3)C2` [Example 3] belongs −11 % CTL; to `CN(C)C(=O)C12CC3CC(C1)CC(C14CC5CC(CC(C(=O)O)(C5)C1)C4)(C3)C2` [Example 4], −13 % CTL; to `NC(=O)C12CC3CC(C1)CC(C14CC5CC(CC(C(=O)O)(C5)C1)C4)(C3)C2` [Example 5], 50 % CTL.
To `N#CC12CC3CC(C1)CC(C14CC5CC(CC(C(=O)O)(C5)C1)C4)(C3)C2` [Example 6] belongs 1 % CTL; to `CC(C)(C)OC(=O)NC12CC3CC(C1)CC(C14CC5CC(CC(C(=O)O)(C5)C1)C4)(C3)C2` [Example 7], 26 % CTL.
`NC12CC3CC(C1)CC(C14CC5CC(CC(C(=O)O)(C5)C1)C4)(C3)C2` [Example 8]: the “11β-HSD 1 inhibitory activity (% CTL at 1 μM)” value is reported as 95 % CTL.
The figure for `CN(Cc1ccccc1)C(=O)C12CC3CC(C1)CC(C14CC5CC(CC(C(=O)O)(C5)C1)C4)(C3)C2` [Example 9] is 49 % CTL; for `CN(CCc1ccccc1)C(=O)C12CC3CC(C1)CC(C14CC5CC(CC(C(=O)O)(C5)C1)C4)(C3)C2` [Example 10] it is −3 % CTL.
`O=C(O)C12CC3CC(C1)CC(C14CC5CC(CC(C(=O)N6CCCC6)(C5)C1)C4)(C3)C2` [Example 11]: the “11β-HSD 1 inhibitory activity (% CTL at 1 μM)” value was −11 % CTL.
As to `O=C(O)C12CC3CC(C1)CC(C14CC5CC(CC(C(=O)N6CCOCC6)(C5)C1)C4)(C3)C2` [Example 12], the “11β-HSD 1 inhibitory activity (% CTL at 1 μM)” value amounted to 1 % CTL.
To `O=C(O)C12CC3CC(C1)CC(C14CC5CC(CC(C(=O)NCCO)(C5)C1)C4)(C3)C2` [Example 13] belongs 53 % CTL; to `O=C(O)C12CC3CC(C1)CC(C14CC5CC(CC(CO)(C5)C1)C4)(C3)C2` [Example 14], −5 % CTL.
Take `O=C(O)C12CC3CC(C1)CC(C14CC5CC(CC(COc6ccccn6)(C5)C1)C4)(C3)C2` [Example 15]: the “11β-HSD 1 inhibitory activity (% CTL at 1 μM)” value is given as 34 % CTL.
To `CC(=O)NC12CC3CC(C1)CC(C14CC5CC(CC(C(=O)O)(C5)C1)C4)(C3)C2` [Example 16] belongs 69 % CTL.
Regarding `CC(C)N(C)C(=O)C12CC3CC(C1)CC(C14CC5CC(CC(C(=O)O)(C5)C1)C4)(C3)C2` [Example 17], the “11β-HSD 1 inhibitory activity (% CTL at 1 μM)” value was −26 % CTL.
To `CCN(C)C(=O)C12CC3CC(C1)CC(C14CC5CC(CC(C(=O)O)(C5)C1)C4)(C3)C2` [Example 18] belongs −26 % CTL; to `N#CNC(=O)C12CC3CC(C1)CC(C14CC5CC(CC(C(=O)O)(C5)C1)C4)(C3)C2` [Example 19], 19 % CTL; to `O=C(O)C12CC3CC(C1)CC(C14CC5CC(CC(C(=O)N6CCC6)(C5)C1)C4)(C3)C2` [Example 20], 7 % CTL.
To `O=C(O)C12CC3CC(C1)CC(C14CC5CC(CC(c6nnn[nH]6)(C5)C1)C4)(C3)C2` [Example 21] belongs 69 % CTL; to `CN1CCN(C(=O)C23CC4CC(C2)CC(C25CC6CC(CC(C(=O)O)(C6)C2)C5)(C4)C3)CC1` [Example 22], 37 % CTL; to `COc1ccc(CCCN(C)C(=O)C23CC4CC(C2)CC(C25CC6CC(CC(C(=O)O)(C6)C2)C5)(C4)C3)cc1` [Example 23], −18 % CTL.
Turning to `COc1ccc(C(=O)C23CC4CC(C2)CC(C25CC6CC(CC(C(=O)O)(C6)C2)C5)(C4)C3)cc1` [Example 24], the “11β-HSD 1 inhibitory activity (% CTL at 1 μM)” value is listed as −33 % CTL.
The figure for `O=C(O)C12CC3CC(C1)CC(C14CC5CC(CC(c6nnc(-c7ccccc7)o6)(C5)C1)C4)(C3)C2` [Example 26] is 44 % CTL; for `O=C(O)C12CC3CC(C1)CC(C14CC5CC(CC(c6nc7ccccc7o6)(C5)C1)C4)(C3)C2` [Example 27] it is 12 % CTL.
Turning to `O=C(O)C12CC3CC(C1)CC(C14CC5CC(CC(C(=O)Nc6ccccc6)(C5)C1)C4)(C3)C2` [Example 28], the “11β-HSD 1 inhibitory activity (% CTL at 1 μM)” value was 96 % CTL.
The figure for `CN(C(=O)C12CC3CC(C1)CC(C14CC5CC(CC(C(=O)O)(C5)C1)C4)(C3)C2)C1CCCCC1` [Example 29] is −8 % CTL.
The figure for `CN(C(=O)C12CC3CC(C1)CC(C14CC5CC(CC(C(=O)O)(C5)C1)C4)(C3)C2)c1ccccc1` [Example 30] is 30 % CTL; for `CN(C(=O)C12CC3CC(C1)CC(C14CC5CC(CC(C(=O)O)(C5)C1)C4)(C3)C2)C1CCCNC1` (stereo not shown) [Example 31] it is 61 % CTL.
To `Cn1c(C23CC4CC(C2)CC(C25CC6CC(CC(C(=O)O)(C6)C2)C5)(C4)C3)nc2ccccc21` [Example 32] belongs 8 % CTL; to `COc1ccc(N(C)C(=O)C23CC4CC(C2)CC(C25CC6CC(CC(C(=O)O)(C6)C2)C5)(C4)C3)cc1` [Example 33], 81 % CTL; to `CN(C(=O)C12CC3CC(C1)CC(C14CC5CC(CC(C(=O)O)(C5)C1)C4)(C3)C2)c1ccc(-c2ccccc2)cc1` [Example 34], 36 % CTL.
On to `CCN(C(=O)C12CC3CC(C1)CC(C14CC5CC(CC(C(=O)O)(C5)C1)C4)(C3)C2)C1CCCCC1` [Example 35], for which the “11β-HSD 1 inhibitory activity (% CTL at 1 μM)” value is −3 % CTL.
On to `CN(C(=O)C12CC3CC(C1)CC(C14CC5CC(CC(C(=O)O)(C5)C1)C4)(C3)C2)C1CCC(c2ccccc2)CC1` (stereo not shown) [Example 36], for which the “11β-HSD 1 inhibitory activity (% CTL at 1 μM)” value is listed as 13 % CTL.
To `O=C(O)C12CC3CC(C1)CC(C14CC5CC(CC(C6=NCc7ccccc7N6)(C5)C1)C4)(C3)C2` [Example 37] belongs 62 % CTL; to `CN(C(=O)C12CC3CC(C1)CC(C14CC5CC(CC(C(=O)O)(C5)C1)C4)(C3)C2)C1CCC(C(C)(C)C)CC1` (stereo not shown) [Example 38], 7 % CTL.
To `O=C(O)C12CC3CC(C1)CC(C14CC5CC(CC(C(=O)N(CCc6ccccc6)C6CCCCC6)(C5)C1)C4)(C3)C2` [Example 39] belongs 53 % CTL.
On to `CN(C(=O)C12CC3CC(C1)CC(C14CC5CC(CC(C(=O)O)(C5)C1)C4)(C3)C2)C1CCCC1` [Example 40], for which the “11β-HSD 1 inhibitory activity (% CTL at 1 μM)” value was −20 % CTL.
To `O=C(O)C12CC3CC(C1)CC(C14CC5CC(CC(c6nc7ccccc7n6CCc6ccccc6)(C5)C1)C4)(C3)C2` [Example 41] belongs 0 % CTL.
To `O=C(O)C12CC3CC(C1)CC(C14CC5CC(CC(C(=O)N6Cc7ccccc7C6)(C5)C1)C4)(C3)C2` [Example 42] belongs −36 % CTL; to `O=C(O)C12CC3CC(C1)CC(C14CC5CC(CC(C(=O)N6CCc7ccccc7C6)(C5)C1)C4)(C3)C2` [Example 43], −20 % CTL.
To `N#Cc1ccc2c(c1)CN(C(=O)C13CC4CC(C1)CC(C15CC6CC(CC(C(=O)O)(C6)C1)C5)(C4)C3)CC2` [Example 44] belongs −17 % CTL.
`O=C(O)c1ccc(Oc2ccc3c(c2)CN(C(=O)C24CC5CC(C2)CC(C26CC7CC(CC(C(=O)O)(C7)C2)C6)(C5)C4)CC3)cc1` [Example 45]: the “11β-HSD 1 inhibitory activity (% CTL at 1 μM)” value amounted to 8 % CTL.
The figure for `CN(C)C(=O)c1ccc(Oc2ccc3c(c2)CN(C(=O)C24CC5CC(C2)CC(C26CC7CC(CC(C(=O)O)(C7)C2)C6)(C5)C4)CC3)cc1` [Example 46] is 0 % CTL; for `COCC1CCCN1C(=O)C12CC3CC(C1)CC(C14CC5CC(CC(C(=O)O)(C5)C1)C4)(C3)C2` (stereo not shown) [Example 47] it is −15 % CTL.
The figure for `O=C(O)C12CC3CC(C1)CC(C14CC5CC(CC(C(=O)N6CCc7cc(Br)ccc7C6)(C5)C1)C4)(C3)C2` [Example 49] is 24 % CTL.
The figure for `O=C(O)C12CC3CC(C1)CC(C14CC5CC(CC(c6ncc7ccccc7n6)(C5)C1)C4)(C3)C2` [Example 50] is −9 % CTL; for `O=C(O)C12CC3CC(C1)CC(C14CC5CC(CC(C(=O)N6CCc7ccccc76)(C5)C1)C4)(C3)C2` [Example 51] it is 4 % CTL.

Source of the values: patent publication US8309597B2, “1,1′-diadamantyl carboxylic acids, medicaments containing such compounds and their use” (Boehringer Ingelheim International GmbH, priority 2008, dated 2012).
